Data taken from article PMC12250893, “Systematic Characterization of In Vitro and In Vivo Metabolic Pathways and Identification of Novel Biomarkers of 26 Synthetic Cannabinoids” (Molecules, 2025).

Tests used:
[1] = Metabolite identification, HLM incubation and rat model combined (UHPLC-Q-Exactive Orbitrap MS); design: species or system human; rat; conditions: for Characteristic Metabolite: characteristic / defining metabolites by the screening criteria; for Number of Metabolites / Number of Phase I Metabolites / Number of Phase II Metabolites: in vitro (HLM) and in vivo (rat) models together
Experimental: Sprague-Dawley male rats (200 ± 20 g) were obtained from SPF (Beijing) Biotechnology Co., Ltd. (Beijing, China). The animals were housed under controlled environmental conditions: Temperature was maintained at 20–25 °C, humidity at 50 ± 10%, and a 12/12 h light/dark cycle was applied. They had ad libitum access to standard laboratory chow and filtered water. A two-week acclimatization period was provided before the experiments began. The 26 SC standards were prepared in normal saline at concentrations of 0.5 mg/mL, 0.1 mg/mL, and 0.05 mg/mL. Each rat was weighed before administration, and the injection dose was adjusted based on body weight. The dosing volume for each rat was maintained at approximately 200 µL.
162 Sprague-Dawley (SD) rats were randomly divided into 27 groups, with six rats in each group. The control group received an injection of normal saline, while the remaining groups were injected with 26 different types of SCs. The dosage administered was determined based on pre-experimental results, specifically selecting the dose that produced the highest level of metabolites in the blood samples collected 1 h after tail vein injection at concentrations of 0.5 mg/kg, 0.1 mg/kg, and 0.05 mg/kg, as shown in Table 6. Subsequently, tail vein administration was conducted at the specified dosage. The orbital venous blood was taken from the outer canthus of the rat with capillaries at 15 min and 1 h. Feces were collected after the blood. The rats were then sacrificed, and their brains and livers were dissected. Samples were immediately frozen in liquid nitrogen and stored at −80 °C until analysis.
For blood samples, 0.5 mL of each sample was mixed with 1.0 mL of acetonitrile. For brain samples, 0.2 g of tissue was combined with 0.5 mL of acetonitrile. For liver samples, 0.5 g of tissue was mixed with 0.5 mL of acetonitrile. For feces samples, 0.2 g of sample was combined with 1 mL of acetonitrile-water (3:1) for grinding and homogenization. Each mixture was sonicated for 40 min, allowed to precipitate at 4 °C for 30 min, and then centrifuged at 13,500 rpm for 10 min. The supernatant was filtered using a syringe filter (0.45 μm) for further testing.

[2] = Human liver microsomal incubation (in vitro metabolic model); conditions: HLM, 37 °C 1 h, then UDPGA 30 min; peak area of parent in experimental group vs degradation control group
Experimental: Each of the 26 SCs was configured to 1 mg/mL with acetonitrile. The HLMs, NADPH regeneration solution A, regeneration solution B, and UDPGA solution were thawed at 4 °C. An icebox was prepared, and all additional steps were performed on ice. For this, 10 µL of NADPH regeneration solution A, 2 µL of regeneration solution B, 2 µL of SCs standard, and 10 µL of mixed human liver microsomes were added to 176 µL of 0.1 mol/L phosphate buffer. The mixture was mixed thoroughly and incubated at 37 °C for 1 h. Subsequently, 20 µL of UDPGA solution was added and mixed well, followed by an additional incubation for 30 min. The reaction was stopped by adding 200 µL of ice-cold acetonitrile. Additionally, the negative control group and the degradation control group were set up following the same procedure. […] The unadded components were supplemented with an equal amount of phosphate buffer. All samples were centrifuged at a high speed of 13,500 r for 10 min after reaction termination. The supernatant was collected and subsequently passed through a membrane filter (0.45 μm) prior to sampling.
The samples were separated and analyzed using a UHPLC-Q-Exactive Orbitrap MS system (Thermo Fisher Scientific, Waltham, MA, USA), which comprised a Thermo-Scientific™ Q-Exactive™(Thermo Fisher Scientific, Waltham, MA, USA) quadrupole electrostatic field orbitrap mass spectrometer coupled to a Vanquish ultrahigh-performance liquid chromatography (UHPLC) system (Thermo Fisher Scientific, Waltham, MA, USA) with a heated electrospray ionization HESI source in the positive ionization mode. The samples were separated on an ACQUITY UPLC BEH C18 Column (100 × 2.1 mm, 1.7 μm) with the column temperature maintained at 30 °C. The chromatographic separation was achieved using a gradient elution program with mobile phase A consisting of 0.1% formic acid in water and mobile phase B containing 0.1% formic acid in acetonitrile. The gradient profile was programmed as follows: Initial conditions were maintained at 5% B from 0 to 1 min, followed by a linear increase to 95% B from 1 to 11 min; the 95% B composition was held from 11 to 15.5 min, then decreased back to 5% B from 15.5 to 16 min, and finally maintained at 5% B from 16 to 18 min. The flow rate was set at 0.3 mL/min, and the injection volume was 10 μL for all analyses.
The following HESI source conditions were adopted: Acquisition mode was set to positive ion mode; the capillary temperature was maintained at 325 °C, the auxiliary gas heater temperature was set to 350 °C, and the spray voltage was applied at 3.7 kV. The mass spectrometry analysis was carried out in full-scan (FS) mode to trigger data-dependent acquisition in tandem mass spectrometry (FS-ddMS^2) mode. The FS data acquisition was performed using the following parameters: a resolution of 60,000, an automatic gain control (AGC) target of 1 × 10^6, a scan range of m/z 66.7–1000, and a maximum injection time (IT) of 250 ms. The ddMS^2 data acquisition was performed using the following parameters: a resolution of 30,000; an automatic gain control (AGC) target of 1 × 10^5; normalized collision energies (NCEs) of 20, 40, and 70 eV; and a maximum injection time (IT) of 50 ms.
Data acquisition was executed utilizing Xcalibur 4.3 software (Thermo Fisher Scientific, Waltham, MA, USA). The subsequent analysis of the acquired data was conducted using Thermo Fisher Scientific […] 3.2 software (Thermo Fisher Scientific, Waltham, MA, USA). The workflow’s nodes employed specific parameters: a mass tolerance of 5 ppm, a signal-to-noise threshold of 3, a minimum peak intensity of 1 × 10^5, a maximum peak width of 0.8 min, and a minimum of 3 scans per peak.

Row | SMILES | Characteristic Metabolite [1] | Number of Metabolites [1] | Number of Phase I Metabolites [1] | Number of Phase II Metabolites [1] | Conversion Rate [2]
1 | CCCCCn1cc(C(=O)C2C(C)(C)C2(C)C)c2ccccc21 [UR-144] | Hydroxylation, de-N-alkyl side chains, and ketogenic metabolites | 24 | 15 | 9 | 30.5%
2 | C=CCCn1nc(C(=O)NC(C(N)=O)C(C)(C)C)c2ccccc21 (centres unmarked) [ADB-3en-BUTINACA] | Dihydrodiol, deamination, deamination, and hydroxylation metabolites | 22 | 18 | 4 | 98.7%
3 | C=CCCCn1nc(C(=O)NC(C(N)=O)C(C)(C)C)c2ccccc21 (centres unmarked) [ADB-4en-PINACA] | Deamination, hydration, dihydrodiol, and deamination metabolites | 30 | 25 | 5 | 18.2%
4 | CC(C)C(NC(=O)c1nn(Cc2ccc(F)cc2)c2ccccc12)C(N)=O (centres unmarked) [AB-FUBINACA] | Hydrolysis, hydroxylation, and deamination metabolites | 19 | 15 | 4 | 74.6%
5 | C=CCCCn1nc(C(=O)NC(C(N)=O)C(C)C)c2ccccc21 (centres unmarked) [AB-4en-PINACA] | Deamination, hydration, and deamidation metabolites | 18 | 17 | 1 | 98.7%
6 | C=CCCCn1nc(C(=O)NC(C(=O)OC)C(C)(C)C)c2ccccc21 (centres unmarked) [MDMB-4en-PINACA] | Dihydrodiol, ester hydrolysis, ketogenic, and amide hydrolysis metabolites | 14 | 12 | 2 | 69.7%
7 | CCCCCn1c(C(=O)c2cccc3ccccc23)nc2ccccc21 [BIM-018] | Ketogenic, hydroxylated, and dehydrogenated metabolites | 27 | 13 | 14 | 93.7%
8 | CCOC(=O)C(NC(=O)c1nn(CCCCCF)c2ccccc12)C(C)C (centres unmarked) [5F-EMB-PICA] | Ester hydrolysis, amide hydrolysis, and oxidative defluorination metabolite | 19 | 9 | 10 | 80.6%
9 | CCCCCn1cc(C(=O)NC(C(N)=O)C(C)(C)C)c2cccnc21 (centres unmarked) [ADB-P7AICA] | Hydroxylation, deamination, and dehydrogenation metabolites | 40 | 28 | 12 | 42.9%
10 | CN1CCCCC1Cn1cc(C(=O)C2C(C)(C)C2(C)C)c2ccccc21 (centres unmarked) [AB-005] | Hydroxylation, de-N-alkyl side chain, dehydrogenation, and dihydroxylation metabolites | 17 | 12 | 5 | 60.9%
11 | O=C(c1cccc2ccccc12)c1nc2ccccc2n1CCCCCF [BIM-2201] | Oxidative defluorination, dihydrodiol, and hydroxylated metabolite | 29 | 17 | 12 | 90.2%
12 | CCCCCn1cc(C(=O)c2ccc3ccccc3c2)cc1-c1ccccc1F [JWH-307] | Hydroxylation, ketogenic, and de-N-alkyl side chain metabolites | 20 | 12 | 8 | 55.2%
13 | CCCCCCn1nc(C(=O)NC(C(N)=O)C(C)(C)C)c2ccccc21 (centres unmarked) [ADB-HEXINACA] | Deamination, deamidation, amide hydrolysis, and hydroxylation metabolites | 31 | 24 | 7 | 24.8%
